Here are results for ten molecules from ChEMBL document CHEMBL3297661, “1-Substituted-5-[(3,5-dinitrobenzyl)sulfanyl]-1H-tetrazoles and their isosteric analogs: A new class of selective antitubercular agents active against drug-susceptible and multidrug-resistant mycobacteria” (Eur J Med Chem, 2014).

Type in all cases: functional
The test system of assay [1] is Mycobacterium tuberculosis. The assay can be described thus: Antimycobacterial activity against Mycobacterium tuberculosis CNCTC My 331/88 after 14 days by micromethod. The following applies: CNCTC My 331/88, 336 h.
Assay [2] has as its system Mycobacterium tuberculosis. The assay can be described thus: Antimycobacterial activity against Mycobacterium tuberculosis CNCTC My 331/88 after 21 days by micromethod. The following applies: CNCTC My 331/88, 504 h.
The test system of assay [3] is Mycobacterium avium. Briefly: Antimycobacterial activity against Mycobacterium avium CNCTC My 330/88 after 14 days by micromethod. Conditions: CNCTC My 330/88, 336 h.
Assay [4] relates to Mycobacterium avium. Briefly: Antimycobacterial activity against Mycobacterium avium CNCTC My 330/88 after 21 days by micromethod. The following applies: CNCTC My 330/88, 504 h.
Assay [5] deals with Mycobacterium kansasii. Briefly: Antimycobacterial activity against Mycobacterium kansasii CNCTC My 235/80 after 7 days by micromethod. Conditions: CNCTC My 235/80, 168 h.
The subject of assay [6] is Mycobacterium kansasii. Briefly: Antimycobacterial activity against Mycobacterium kansasii CNCTC My 235/80 after 14 days by micromethod. Conditions: CNCTC My 235/80, 336 h.
Assay [7] relates to Mycobacterium kansasii. The assay can be described thus: Antimycobacterial activity against Mycobacterium kansasii CNCTC My 235/80 after 21 days by micromethod. Conditions: CNCTC My 235/80, 504 h.
Assay [8] deals with Mycobacterium kansasii. Briefly: Antimycobacterial activity against Mycobacterium kansasii 6509/96 after 7 days by micromethod. The following applies: 6509/96, 168 h.
Assay [9] has as its system Mycobacterium kansasii. The assay can be described thus: Antimycobacterial activity against Mycobacterium kansasii 6509/96 after 14 days by micromethod. Conditions: 6509/96, 336 h.
Assay [10] has as its system Mycobacterium kansasii. The assay can be described thus: Antimycobacterial activity against Mycobacterium kansasii 6509/96 after 21 days by micromethod. The following applies: 6509/96, 504 h.

≈ marks a conversion by molar mass, not a printed value.

As usually defined, the MIC is the smallest concentration in the dilution series that meets the test's criterion for growth inhibition. A low value points to inhibition by little substance. Turning to `COc1cccc(-n2nnnc2SCc2cc([N+](=O)[O-])cc([N+](=O)[O-])c2)c1`, the MIC in assay [1] was 2 µM (≈ 0.777 µg/mL); in assay [2], 4 µM (≈ 1.55 µg/mL); in assay [3], 125 µM (≈ 48.5 µg/mL); in assay [4] it was 125 µM (≈ 48.5 µg/mL); in [5], 125 µM (≈ 48.5 µg/mL); in assay [6], 125 µM (≈ 48.5 µg/mL). Besides, the MIC in assay [7], in assay [8], in [9] and in [10] was 125 µM (≈ 48.5 µg/mL) in each case.

Regarding `O=[N+]([O-])c1cc(COc2nnnn2-c2ccc(Br)cc2)cc([N+](=O)[O-])c1`, the MIC in [1] stood at 2 µM (≈ 0.842 µg/mL); in assay [2], 4 µM (≈ 1.68 µg/mL); in assay [3], 125 µM (≈ 52.6 µg/mL); in assay [4] it was 125 µM (≈ 52.6 µg/mL); in assay [5] it was 8 µM (≈ 3.37 µg/mL); in assay [6], 16 µM (≈ 6.74 µg/mL). The MIC in [7] was 16 µM (≈ 6.74 µg/mL); in assay [8], 4 µM (≈ 1.68 µg/mL); in [9] it was 16 µM (≈ 6.74 µg/mL); in assay [10] it was 16 µM (≈ 6.74 µg/mL).

Turning to `O=[N+]([O-])c1cc(COc2nnnn2-c2ccccc2)cc([N+](=O)[O-])c1`, the minimal inhibitory concentration (MIC) in assay [1] was determined as 2 µM (≈ 0.685 µg/mL); in assay [2], 4 µM (≈ 1.37 µg/mL); in assay [3], 125 µM (≈ 42.8 µg/mL); in assay [4] it was 125 µM (≈ 42.8 µg/mL); in assay [5], 8 µM (≈ 2.74 µg/mL); in assay [6], 16 µM (≈ 5.48 µg/mL). For the same molecule, the MIC in assay [7] is 32 µM (≈ 11 µg/mL); in [8] it was 8 µM (≈ 2.74 µg/mL); in assay [9], 16 µM (≈ 5.48 µg/mL); in assay [10], 32 µM (≈ 11 µg/mL).

Turning to `CCCCCCCCCCCCCCCCSCc1cc([N+](=O)[O-])cc([N+](=O)[O-])c1`, the minimal inhibitory concentration (MIC) turned out to be 1000 µM (≈ 439 µg/mL) in assay [1]; 1000 µM (≈ 439 µg/mL) in [2]; 1000 µM (≈ 439 µg/mL) in [3]; 1000 µM (≈ 439 µg/mL) in assay [4]; 500 µM (≈ 219 µg/mL) in assay [5]; 500 µM (≈ 219 µg/mL) in assay [6]. Further, the minimum inhibitory concentration (MIC) in assay [7], in assay [8], in assay [9] and in assay [10] was 500 µM (≈ 219 µg/mL) in each case.

As to `COc1ccc(-n2nnnc2OCc2cc([N+](=O)[O-])cc([N+](=O)[O-])c2)cc1`, the minimal inhibitory concentration (MIC) in assay [1] was 2 µM (≈ 0.745 µg/mL); in [2], 2 µM (≈ 0.745 µg/mL); in [3] it was 16 µM (≈ 5.96 µg/mL); in [4], 32 µM (≈ 11.9 µg/mL); in assay [5], 4 µM (≈ 1.49 µg/mL); in [6], 8 µM (≈ 2.98 µg/mL). Moreover, the MIC was 16 µM (≈ 5.96 µg/mL) in assay [7], 4 µM (≈ 1.49 µg/mL) in [8], 16 µM (≈ 5.96 µg/mL) in [9] and 16 µM (≈ 5.96 µg/mL) in assay [10].

Regarding `Nn1nnnc1SCc1cc([N+](=O)[O-])cc([N+](=O)[O-])c1`, the MIC was determined as 8 µM (≈ 2.38 µg/mL) in assay [1]; 16 µM (≈ 4.76 µg/mL) in assay [2]; 1000 µM (≈ 297 µg/mL) in assay [3]; 1000 µM (≈ 297 µg/mL) in assay [4]; 8 µM (≈ 2.38 µg/mL) in assay [5]; 32 µM (≈ 9.51 µg/mL) in [6]. Also, the minimal inhibitory concentration (MIC) worked out at 32 µM (≈ 9.51 µg/mL) in assay [7], 16 µM (≈ 4.76 µg/mL) in assay [8], 32 µM (≈ 9.51 µg/mL) in assay [9] and 32 µM (≈ 9.51 µg/mL) in assay [10].

On to `O=[N+]([O-])c1cc(CSCc2ccccc2)cc([N+](=O)[O-])c1`, for which the MIC in assay [1] turned out to be 250 µM (≈ 76.1 µg/mL); in [2], 250 µM (≈ 76.1 µg/mL); in assay [3], 125 µM (≈ 38 µg/mL); in assay [4], 125 µM (≈ 38 µg/mL); in assay [5], 125 µM (≈ 38 µg/mL); in assay [6], 125 µM (≈ 38 µg/mL). In addition, the MIC in assay [7], in [8], in assay [9] and in assay [10] was 125 µM (≈ 38 µg/mL) throughout.

`O=[N+]([O-])c1cc(CSc2nnnn2C23CC4CC(CC(C4)C2)C3)cc([N+](=O)[O-])c1`: the MIC in assay [1] was found to be 4 µM (≈ 1.67 µg/mL); in assay [2], 4 µM (≈ 1.67 µg/mL); in assay [3], 500 µM (≈ 208 µg/mL); in assay [4] it was 500 µM (≈ 208 µg/mL); in [5], 4 µM (≈ 1.67 µg/mL); in [6] it was 8 µM (≈ 3.33 µg/mL). The MIC was 16 µM (≈ 6.66 µg/mL) in [7], 8 µM (≈ 3.33 µg/mL) in [8], 8 µM (≈ 3.33 µg/mL) in [9] and 8 µM (≈ 3.33 µg/mL) in assay [10].

As to `O=[N+]([O-])c1cc(CSc2nnnn2-c2ccc(F)cc2)cc([N+](=O)[O-])c1`, the MIC in assay [1] was 2 µM (≈ 0.753 µg/mL); in assay [2], 2 µM (≈ 0.753 µg/mL); in assay [3] it was 250 µM (≈ 94.1 µg/mL); in assay [4], 250 µM (≈ 94.1 µg/mL); in [5] it was 2 µM (≈ 0.753 µg/mL); in [6], 4 µM (≈ 1.51 µg/mL). For the same molecule, the MIC is 4 µM (≈ 1.51 µg/mL) in [7], 4 µM (≈ 1.51 µg/mL) in assay [8], 8 µM (≈ 3.01 µg/mL) in [9] and 16 µM (≈ 6.02 µg/mL) in [10].

With `O=[N+]([O-])c1cc(C[S+]([O-])c2nnnn2-c2ccccc2)cc([N+](=O)[O-])c1` (stereo not given), the MIC in [1] turned out to be 62 µM (≈ 23.2 µg/mL); in assay [2] it was 62 µM (≈ 23.2 µg/mL); in [3], 125 µM (≈ 46.8 µg/mL); in assay [4], 125 µM (≈ 46.8 µg/mL); in assay [5], 62 µM (≈ 23.2 µg/mL); in [6], 250 µM (≈ 93.6 µg/mL). The MIC in assay [7] came out at 250 µM (≈ 93.6 µg/mL); in assay [8], 125 µM (≈ 46.8 µg/mL); in assay [9], 250 µM (≈ 93.6 µg/mL); in assay [10], 250 µM (≈ 93.6 µg/mL).
